# Source: patent publication US20260345555A1, “Compositions and Methods for Protecting Salivary Glands from Off-Target Radiation Damage” (University of Rochester, priority 2022, published 2026)
# Where a name gives a salt, the structure may show the parent alone.
# System: Reduced glutathione in salivary gland cell clusters (SGm)
# Assay: Glutathione assay in salivary gland tissue chip, 4 days post-radiation (15 Gy); also first screen of Selleck library at 100 μM
# Type: cell-based, mouse
# Conditions: not given
# Description: (§1) A salivary gland tissue chip was leveraged for high-content drug screening to identify novel radioprotective compounds (Song Y et al., Commun Biol., 2021, 4). The chip platform consists of an array of near-spherical microbubble (MB) cavities formed in poly(dimethylsiloxane) (PDMS). Each chip, containing ~50 MBs, affixed within wells of a 96-well plate (FIG. 1C). Primary salivary gland cell clusters (FIG. 1A), suspended in a poly(ethylene glycol) (PEG) hydrogel precursor and MMP-degradable peptide crosslinker solution together with the photoinitiator LAP, were applied to the chip allowing the clusters to deposit into the MBs (FIG. 1D). In situ polymerization of the hydrogel was achieved using long-wave, low intensity UV light. Over time, the cell clusters aggregate and proliferate to form SGm (FIG. 1C).
# The glutathione assay was used to measure glutathione levels at various time points post-radiation to determine the optimal time point for detecting differences between 0 Gy and 15 Gy. Based on the data, the greatest signal separation was measured at 4 days post-irradiation (FIG. 9). This timepoint is similar to previous reports on decreases in glutathione post-radiation and was used for all experiments moving forward (Meeks L et al., Physiological Genomics, 2021, 53: 85-98).
# The dose response to WR-1065 was examined to determine effective concentrations of WR-1065 to prevent the reduction of glutathione levels post-radiation. A SGm tissue chip was cultured for 4 days to allow spheres to form. The chip was then treated with WR-1065 30 minutes before and during radiation, followed by drug wash out with media 30 minutes post-radiation (FIG. 2A). This dosing scheme is consistent with the use of Amifostine clinically and with previous work. The glutathione assay was performed at 4 days post-radiation (FIG. 2A). […] Moreover, it is clinically relevant as 15-30 minutes before radiation, patients are administered Amifostine intravenously at 200 mg/m (Escobar A et al., IntechOpen, 2019, pp. 15-37; Eisbruch A, J Clin Oncol, 2011, 29: 119-121; Bardet, E. et al. Semin Oncol, 2002, 29, 57-60). Assuming an average adult body surface area of 17,000 cm^2 and a blood volume of 1.35 gallons (5.1 liters), Amifostine is administered at 300 μM (Mosteller, R. D. N Engl J Med 317, 1098 (1987)).
# The glutathione and senescence assays were used to screen a library of FDA-approved drugs (Selleck Chemicals) at 100 μM. Drugs were first screened using the glutathione assay according to the timeline depicted in FIG. 2A. Any compound resulting in statistically similar glutathione levels compared to 0 Gy control was considered a hit (FIG. 4, grey circles). Hits with the glutathione assay were then tested with the senescence assay and considered a “double hit” if senescence levels were statistically similar to levels at 0 Gy (FIG. 4, black circles). […] While this hit rate is higher than many other drug screening reports (0.1-0.3%), this may be due to the statistical rigor afforded by the tissue chip format (Blanchard, C et al., Antimicrob Agents Chemother 2016, 60, 862-872; Colquhoun, J. M et al., Antibiotics (Basel) 2019, 8, 48). Additionally, phenotypic screens generally have higher hit rates than target-based screens (>1%) (Moffat, J. G et al., Nature Reviews Drug Discovery 2017, 16, 531-543; Rottman, M et al., Science 2010, 329, 1175-1180).
# Mice were euthanized and the submandibular glands (SMG) were removed and chopped with a razor blade for 5 min. The tissue was then incubated in Hank's buffered salt solution (HBSS) containing 15 mM HEPES, 50 U/mL collagenase type II (Thermo Fischer 17101015), and 100 U/mL hyaluronidase (Sigma Aldrich H3506) at 37 °C for 30 min. Cells were centrifuged, then resuspended in HBSS with 15 mM HEPES and passed through 100 μm and 20 μm mesh filters to isolate clusters between 20-100 μm. The digestion protocol produces cell cluster sizes evenly distributed between 20 to 100 μm (Song, Y et al., Advanced Healthcare Materials). […]
row,Compound,Glutathione: Normalized mean intensity
1,O=P1(NCCCl)OCCCN1CCCl (stereo not drawn) [Ifosfamide],0.7162
2,Cc1c(OCC(F)(F)F)ccnc1C[S+]([O-])c1nc2ccccc2[nH]1 (stereo not drawn) [Lansoprazole],0.6174

# Same assay, conditions: first screen of Selleck library at 100 μM, 15 Gy, 4 days post-radiation
row,Compound,Glutathione normalized mean intensity
1,COc1ccccc1OCCNCC(O)COc1cccc2[nH]c3ccccc3c12 (stereo not drawn) [Carvedilol],0.9878
2,O=C(Nc1cccc2c(=O)cc(-c3nnn[nH]3)oc12)c1ccc(OCCCCc2ccccc2)cc1 [Pranlukast],0.9284
3,CC(C(=O)[O-])c1cccc(Oc2ccccc2)c1.CC(C(=O)[O-])c1cccc(Oc2ccccc2)c1.[Ca+2] (stereo not drawn) [Fenoprofen calcium],0.9731
4,Nc1ncnc2c1ncn2[C@@H]1O[C@H](CO)[C@@H](O)[C@@H]1O [Vidarabine (Vira-A)],0.3742
5,O=c1c(-c2ccc(O)cc2)coc2cc(O)ccc12 [Daidzein],0.5394
6,NCC1CCC(C(=O)O)CC1 (stereo not drawn) [Tranexamic acid (Transamin)],0.7568
7,CN(C)[C@@H](CCOc1cccc2ccccc12)c1ccccc1 [Dapoxetine hydrochloride (Priligy)],0.7539
8,[I-].[K+] [Potassium iodide],0.386
9,CC1=CC(=O)c2ccccc2C1=O [Menadione],0.4363
10,CCOC(=O)[C@H](CCc1ccccc1)N[C@@H](C)C(=O)N1[C@H](C(=O)O)C[C@@H]2CCC[C@@H]21 [Ramipril (Altace)],0.7145
11,CC(=O)OCC(=O)[C@@]12N=C(C)O[C@@H]1C[C@H]1[C@@H]3CCC4=CC(=O)C=C[C@]4(C)[C@H]3[C@@H](O)C[C@@]12C [Deflazacort (Calcort)],0.5114
12,C=CCc1cc(OC)c(O)c(C(=O)NCCO)c1 [Alibendol],0.7165
13,CN=C(NC#N)NCCSCc1nc[nH]c1C [Cimetidine (Tagamet)],0.9597
14,C[C@@](Cc1ccc(O)c(O)c1)(NN)C(=O)O [Carbidopa],0.5325
15,COC(=O)Nc1nc2ccc([S+]([O-])c3ccccc3)cc2[nH]1 (stereo not drawn) [Oxfendazole],0.6
16,c1ccc(-c2ccc(C(c3ccccc3)n3ccnc3)cc2)cc1 (stereo not drawn) [Bifonazole],0.6115
17,CN(C)c1ccc(C(=C2C=CC(=[N+](C)C)C=C2)c2ccc(N(C)C)cc2)cc1 [Crystal violet],0.1262
18,Clc1ccc(C(Cn2ccnc2)OCc2ccsc2Cl)c(Cl)c1 (stereo not drawn) [Tioconazole],0.6333
19,Nc1nc(N)nc(-c2cc(Cl)ccc2Cl)n1 [Irsogladine],0.613
20,CC(C)n1c(/C=C/[C@H](O)C[C@H](O)CC(=O)O)c(-c2ccc(F)cc2)c2ccccc21 (racemic) [Fluvastatin sodium (Lescol)],0.5791
21,C[C@@H]1CN(c2c(F)c(N)c3c(=O)c(C(=O)O)cn(C4CC4)c3c2F)C[C@H](C)N1 [Sparfloxacin],0.7607
22,O=P(O)(O)C(O)(Cc1cccnc1)P(=O)(O)O [Risedronic acid (Actonel)],0.6565
23,CN1[C@@H]2CC[C@H]1C[C@@H](OC(=O)c1c[nH]c3ccccc13)C2 [Tropisetron],0.5993
24,O=c1[nH]c(=O)n([C@H]2C[C@H](O)[C@@H](CO)O2)cc1I [Idoxuridine],0.7701
25,Nc1nc(O)c2ncn(COC(CO)CO)c2n1 [Ganciclovir],0.5803
26,CCC(C)(C)C(=O)O[C@H]1C[C@@H](C)C=C2C=C[C@H](C)[C@H](CC[C@@H]3C[C@@H](O)CC(=O)O3)[C@H]21 [Simvastatin (Zocor)],0.1568
27,Vitamin B12,0.7029
28,COc1ccc(CC2c3cc(OC)c(OC)cc3CC[N+]2(C)CCC(=O)OCCCCCOC(=O)CC[N+]2(C)CCc3cc(OC)c(OC)cc3C2Cc2ccc(OC)c(OC)c2)cc1OC (stereo not drawn) [Atracurium besylate],0.6611
29,CO[C@H]1/C=C/O[C@@]2(C)Oc3c(C)c(O)c4c(O)c(c5c(nc6cc(C)ccn65)c4c3C2=O)NC(=O)/C(C)=C\C=C\[C@H](C)[C@H](O)[C@@H](C)[C@@H](O)[C@@H](C)[C@H](OC(C)=O)[C@@H]1C [Rifaximin (Xifaxan)],0.3977

# System: senescence-associated β-galactosidase in salivary gland cell clusters (SGm)
# Assay: Cellular senescence assay (SPiDER-βGal) in salivary gland tissue chip, 5 days post-radiation (15 Gy); also second screen of library hits at 100 μM
# Type: cell-based, mouse
# Conditions: glutathione and senescence assays, 100 μM, statistically similar to 0 Gy
# Description: as §1, with “The” for “A salivary gland tissue chip was leveraged for high-content drug screening to identify novel radioprotective compounds (Song Y et al., Commun Biol., 2021, 4). The”
# For senescence, a protocol similar to the glutathione assay was followed to determine the optimal time point post-radiation for detecting a change in senescence between 0 Gy and 15 Gy, as measured by senescence-associated β-galactosidase activity.
# The glutathione and senescence assays were used to screen a library of FDA-approved drugs (Selleck Chemicals) at 100 μM. Drugs were first screened using the glutathione assay according to the timeline depicted in FIG. 2A. […] Hits with the glutathione assay were then tested with the senescence assay and considered a “double hit” if senescence levels were statistically similar to levels at 0 Gy (FIG. 4, black circles).
# Mice were euthanized and the submandibular glands (SMG) were removed and chopped with a razor blade for 5 min. […] Cells were centrifuged, then resuspended in HBSS with 15 mM HEPES and passed through 100 μm and 20 μm mesh filters to isolate clusters between 20-100 μm. […] The isolated clusters were combined with hydrogel precursor solution and seeded in MB array-based chips as described below.
# The cell/gel precursor solution (25 μL for 48 well; 20 μL for 96 well) was pipetted onto the MB chips and incubated for 30 min, pipetting every 10 min to redisperse cells that had settled onto the surface of the chip.
# A cellular senescence assay for the chips was developed by adapting the Cellular Senescence Detection Kit—SPiDER-βGal (Dojindo Molecular Technologies, Inc. SG04). Bafilomycin A1 and SPiDER-βGal stock solutions were prepared in DMSO per manufacturer directions. The assay was performed by first incubating the chips with bafilomycin A1 (1:1000 dilution in media) for 1 hr at 37 °C. […] Chips were washed twice with media and imaged using a fluorescence microscope with a Texas Red filter (Excitation: 580 nm; Emission: 604 nm).
# For radioprotection experiments, SGm were cultured in MB-hydrogel chips for 4 days, then drugs were added to the chips 30 min prior to irradiation and washed out with media 30 min post-radiation treatment. […] The glutathione and senescence assays were performed at 4- and 5-days post-radiation. For assay validation experiments, at least 3 chips (N=3) were used for each drug, corresponding to >100 MBs (n>100); these values are listed in the figure description for each experiment. Mean, standard deviation, and statistics were calculated based on the number of MBs (n).
# For screening of the Selleck Chemicals compound library, the same treatment scheme was used, with drugs administered at 100 μM. One MB chip (N=1) was used per compound, with ~40-50 MBs per chip […]; statistics were calculated using the number of MBs (n) and compared to 0 Gy controls.
# For both the glutathione and cellular senescence assays, images were quantified in ImageJ.
row,Compound,double hit in the drug screen
1,CO[C@H]1/C=C/O[C@@]2(C)Oc3c(C)c(O)c4c(c3C2=O)C2=NC3(CCN(CC(C)C)CC3)NC2=C(NC(=O)/C(C)=C\C=C\[C@H](C)[C@H](O)[C@@H](C)[C@@H](O)[C@@H](C)[C@H](OC(C)=O)[C@@H]1C)C4=O [Rifabutin (Mycobutin)],double hits
2,CO[C@H]1/C=C/O[C@@]2(C)Oc3c(C)c(O)c4c(O)c(c(/C=N/N5CCN(C)CC5)c(O)c4c3C2=O)NC(=O)/C(C)=C\C=C\[C@H](C)[C@H](O)[C@@H](C)[C@@H](O)[C@@H](C)[C@H](OC(C)=O)[C@@H]1C [Rifampin],double hits

# Same assay, conditions: second screen of library hits at 100 μM, 15 Gy, 5 days post-radiation; only drugs nonsignificant compared to 0 Gy in the glutathione assay
row,Compound,Senescence normalized mean intensity
1,COc1ccccc1OCCNCC(O)COc1cccc2[nH]c3ccccc3c12 (stereo not drawn) [Carvedilol],1.255
2,O=C(Nc1cccc2c(=O)cc(-c3nnn[nH]3)oc12)c1ccc(OCCCCc2ccccc2)cc1 [Pranlukast],1.394
3,CC(C(=O)[O-])c1cccc(Oc2ccccc2)c1.CC(C(=O)[O-])c1cccc(Oc2ccccc2)c1.[Ca+2] (stereo not drawn) [Fenoprofen calcium],1.472
